Data from patent US12077503B2, “Substituted cyclic amides and their use as herbicides” (FMC CORPORATION, priority 2015, dated 2024).

Legend:
Assay type in all cases: in vivo
[1] = system: barnyardgrass (Echinochloa crus-galli); experiment: Test G Post-Emergence Protocol; conditions: Echinochloa crus-galli, post-emergence, 312 h; for pest or weed control at 15.625 g/ha: 15.625 g ai/ha, evaluated after 13 days (100=total damage to plant; 0=no damage to plant), read-out: Barnyardgrass damage rating; for pest or weed control at 62.5 g/ha: 62.5 g ai/ha, read-out: Barnyardgrass damage rating (100=total damage to plant; 0=no damage to plant); for pest or weed control at 62.5 g/ha / pest or weed control at 250 g/ha: evaluated after 13 days; for pest or weed control at 250 g/ha: 250 g ai/ha, read-out: damage to plant, Barnyardgrass (100=total damage to plant; 0=no damage to plant)
Method in brief: (§1)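 Post-emergence herbicidal damage, scored visually 0–100 at 13 days. Application at 15.625, 62.5 or 250 g/ha onto 8-day-old plants grown under glasshouse control.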

[2] = system: giant foxtail (Setaria faberi); experiment: Test G Post-Emergence Protocol; conditions: Setaria faberi, post-emergence, 312 h; for pest or weed control at 15.625 g/ha: 15.625 g ai/ha, evaluated after 13 days (100=total damage to plant; 0=no damage to plant), read-out: Foxtail, Giant damage rating; for pest or weed control at 62.5 g/ha: 62.5 g ai/ha, read-out: Foxtail, Giant damage rating (100=total damage to plant; 0=no damage to plant); for pest or weed control at 62.5 g/ha / pest or weed control at 250 g/ha: evaluated after 13 days; for pest or weed control at 250 g/ha: 250 g ai/ha, read-out: damage to plant, Foxtail, Giant (100=total damage to plant; 0=no damage to plant)
Method in brief: as §1

[3] = system: ivy-leaved morning glory (Ipomoea hederacea); experiment: Test G Post-Emergence Protocol; conditions: Ipomoea, post-emergence, 312 h; for pest or weed control at 15.625 g/ha: 15.625 g ai/ha, evaluated after 13 days (100=total damage to plant; 0=no damage to plant), read-out: Morningglory, Ivy-leaved damage rating; for pest or weed control at 62.5 g/ha: 62.5 g ai/ha, read-out: Morningglory, Ivy-leaved damage rating (100=total damage to plant; 0=no damage to plant); for pest or weed control at 62.5 g/ha / pest or weed control at 250 g/ha: evaluated after 13 days; for pest or weed control at 250 g/ha: 250 g ai/ha, read-out: damage to plant, Morningglory, Ivy-leaved (100=total damage to plant; 0=no damage to plant)
Method in brief: as §1

corn (Zea mays) [4] = experiment: Test G Post-Emergence Protocol; conditions: Zea mays, post-emergence, 312 h; for plant injury at 15.625 g/ha: 15.625 g ai/ha, evaluated after 13 days (100=total damage to plant; 0=no damage to plant), read-out: Corn damage rating; for plant injury at 62.5 g/ha: 62.5 g ai/ha, read-out: Corn damage rating (100=total damage to plant; 0=no damage to plant); for plant injury at 62.5 g/ha / plant injury at 250 g/ha: evaluated after 13 days; for plant injury at 250 g/ha: 250 g ai/ha, read-out: damage to plant, Corn (100=total damage to plant; 0=no damage to plant)
Method in brief: as §1

[5] = system: velvetleaf (Abutilon theophrasti); experiment: Test G Post-Emergence Protocol; conditions: Abutilon theophrasti, post-emergence, 312 h; for pest or weed control at 15.625 g/ha: 15.625 g ai/ha, evaluated after 13 days (100=total damage to plant; 0=no damage to plant), read-out: Velvetleaf damage rating; for pest or weed control at 62.5 g/ha: 62.5 g ai/ha, read-out: Velvetleaf damage rating (100=total damage to plant; 0=no damage to plant); for pest or weed control at 62.5 g/ha / pest or weed control at 250 g/ha: evaluated after 13 days; for pest or weed control at 250 g/ha: 250 g ai/ha, read-out: damage to plant, Velvetleaf (100=total damage to plant; 0=no damage to plant)
Method in brief: as §1

[6] = system: redroot pigweed (Amaranthus retroflexus); experiment: Test G Post-Emergence Protocol; conditions: Amaranthus retroflexus, post-emergence, 312 h; for pest or weed control at 15.625 g/ha: 15.625 g ai/ha, evaluated after 13 days (100=total damage to plant; 0=no damage to plant), read-out: Pigweed, Redroot damage rating; for pest or weed control at 62.5 g/ha: 62.5 g ai/ha, read-out: Pigweed, Redroot damage rating (100=total damage to plant; 0=no damage to plant); for pest or weed control at 62.5 g/ha / pest or weed control at 250 g/ha: evaluated after 13 days; for pest or weed control at 250 g/ha: 250 g ai/ha, read-out: damage to plant, Pigweed, Redroot (100=total damage to plant; 0=no damage to plant)
Method in brief: as §1

[7] = system: barnyardgrass (Echinochloa crus-galli); experiment: Test G Pre-Emergence Protocol; conditions: Echinochloa crus-galli, pre-emergence, 312 h, evaluated after 13 days; for pest or weed control at 15.625 g/ha: 15.625 g ai/ha, read-out: Barnyard grass damage rating (100=total damage to plant; 0=no damage to plant); for pest or weed control at 62.5 g/ha: 62.5 g ai/ha, 100=total damage to plant, 0=no damage to plant, read-out: plant damage rating, Barnyardgrass; for pest or weed control at 250 g/ha: 250 g ai/ha, read-out: Barnyardgrass damage rating (100=total damage to plant; 0=no damage to plant)
Method in brief: (§2)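 Scores are visual damage ratings from 0 (no damage) to 100 (total plant kill), taken 13 days after treatment. Compound was sprayed one day post-sowing at 15.625, 62.5 or 250 g/ha in 50:50 acetone/water with 0.5% Tween 20.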

[8] = system: giant foxtail (Setaria faberi); experiment: Test G Pre-Emergence Protocol; conditions: Setaria faberi, pre-emergence, 312 h, evaluated after 13 days; for pest or weed control at 15.625 g/ha: 15.625 g ai/ha; for pest or weed control at 15.625 g/ha / pest or weed control at 250 g/ha: read-out: Foxtail, Giant damage rating (100=total damage to plant; 0=no damage to plant); for pest or weed control at 62.5 g/ha: 62.5 g ai/ha, 100=total damage to plant, 0=no damage to plant, read-out: plant damage rating, Foxtail, Giant; for pest or weed control at 250 g/ha: 250 g ai/ha
Method in brief: as §2

[9] = system: ivy-leaved morning glory (Ipomoea hederacea); experiment: Test G Pre-Emergence Protocol; conditions: Ipomoea, pre-emergence, 312 h, evaluated after 13 days; for pest or weed control at 15.625 g/ha: 15.625 g ai/ha, read-out: Morning-glory, Ivy-leaved damage rating (100=total damage to plant; 0=no damage to plant); for pest or weed control at 62.5 g/ha: 62.5 g ai/ha, 100=total damage to plant, 0=no damage to plant, read-out: plant damage rating, Morningglory, Ivy-leaved; for pest or weed control at 250 g/ha: 250 g ai/ha, read-out: Morningglory, Ivy-leaved damage rating (100=total damage to plant; 0=no damage to plant)
Method in brief: as §2

corn (Zea mays) [10] = experiment: Test G Pre-Emergence Protocol; conditions: Zea mays, pre-emergence, 312 h, evaluated after 13 days; for plant injury at 15.625 g/ha: 15.625 g ai/ha; for plant injury at 15.625 g/ha / plant injury at 250 g/ha: read-out: Corn damage rating (100=total damage to plant; 0=no damage to plant); for plant injury at 62.5 g/ha: 62.5 g ai/ha, 100=total damage to plant, 0=no damage to plant, read-out: plant damage rating, Corn; for plant injury at 250 g/ha: 250 g ai/ha
Method in brief: as §2

[11] = system: velvetleaf (Abutilon theophrasti); experiment: Test G Pre-Emergence Protocol; conditions: Abutilon theophrasti, pre-emergence, 312 h, evaluated after 13 days; for pest or weed control at 15.625 g/ha: 15.625 g ai/ha; for pest or weed control at 15.625 g/ha / pest or weed control at 250 g/ha: read-out: Velvetleaf damage rating (100=total damage to plant; 0=no damage to plant); for pest or weed control at 62.5 g/ha: 62.5 g ai/ha, 100=total damage to plant, 0=no damage to plant, read-out: plant damage rating, Velvetleaf; for pest or weed control at 250 g/ha: 250 g ai/ha
Method in brief: as §2

[12] = system: redroot pigweed (Amaranthus retroflexus); experiment: Test G Pre-Emergence Protocol; conditions: Amaranthus retroflexus, pre-emergence, 312 h, evaluated after 13 days; for pest or weed control at 15.625 g/ha: 15.625 g ai/ha; for pest or weed control at 15.625 g/ha / pest or weed control at 250 g/ha: read-out: Pigweed, Redroot damage rating (100=total damage to plant; 0=no damage to plant); for pest or weed control at 62.5 g/ha: 62.5 g ai/ha, 100=total damage to plant, 0=no damage to plant, read-out: plant damage rating, Pigweed, Redroot; for pest or weed control at 250 g/ha: 250 g ai/ha
Method in brief: as §2

Compound | pest or weed control at 15.625 g/ha [1] [%] | pest or weed control at 62.5 g/ha [1] [%] | pest or weed control at 250 g/ha [1] [%] | pest or weed control at 15.625 g/ha [2] [%] | pest or weed control at 62.5 g/ha [2] [%] | pest or weed control at 250 g/ha [2] [%] | pest or weed control at 15.625 g/ha [3] [%] | pest or weed control at 62.5 g/ha [3] [%] | pest or weed control at 250 g/ha [3] [%] | plant injury at 15.625 g/ha (corn (Zea mays) [4]) [%] | plant injury at 62.5 g/ha (corn (Zea mays) [4]) [%] | plant injury at 250 g/ha (corn (Zea mays) [4]) [%] | pest or weed control at 15.625 g/ha [5] [%] | pest or weed control at 62.5 g/ha [5] [%] | pest or weed control at 250 g/ha [5] [%] | pest or weed control at 15.625 g/ha [6] [%] | pest or weed control at 62.5 g/ha [6] [%] | pest or weed control at 250 g/ha [6] [%] | pest or weed control at 15.625 g/ha [7] [%] | pest or weed control at 62.5 g/ha [7] [%] | also measured
Cc1cccc(NC(=O)[C@@H]2C(=O)N(C)C[C@H]2c2ccc(C(F)(F)F)cc2)c1[N+](=O)[O-] (racemic) [Compound 1636] | 10 | 50 | 50 | 50 | 70 | 70 | 0 | 0 | 0 | 0 | 0 | 0 | 0 | 0 | 0 | 0 | 0 | 0 | 0 | 10 | pest or weed control at 250 g/ha [7]: 30%; pest or weed control at 15.625 g/ha [8]: 0%; pest or weed control at 62.5 g/ha [8]: 40%; pest or weed control at 250 g/ha [8]: 60%; pest or weed control at 15.625 g/ha [9]: 0%; pest or weed control at 62.5 g/ha [9]: 0%; pest or weed control at 250 g/ha [9]: 0%; plant injury at 15.625 g/ha (corn (Zea mays) [10]): 0%; plant injury at 62.5 g/ha (corn (Zea mays) [10]): 0%; plant injury at 250 g/ha (corn (Zea mays) [10]): 0%; pest or weed control at 15.625 g/ha [11]: 0%; pest or weed control at 62.5 g/ha [11]: 0%; pest or weed control at 250 g/ha [11]: 0%; pest or weed control at 15.625 g/ha [12]: 0%; pest or weed control at 62.5 g/ha [12]: 0%; pest or weed control at 250 g/ha [12]: 0%
COc1nccc(NC(=O)[C@@H]2C(=O)N(C)C[C@H]2c2ccc(C(F)(F)F)cc2)n1 (racemic) [Compound 1640] | 0 | 0 | 0 | 0 | 0 | 0 | 0 | 0 | 0 | 0 | 0 | 0 | 0 | 0 | 0 | 0 | 0 | 0 | 0 | 0 | pest or weed control at 250 g/ha [7]: 0%; pest or weed control at 15.625 g/ha [8]: 0%; pest or weed control at 62.5 g/ha [8]: 0%; pest or weed control at 250 g/ha [8]: 0%; pest or weed control at 15.625 g/ha [9]: 0%; pest or weed control at 62.5 g/ha [9]: 0%; pest or weed control at 250 g/ha [9]: 0%; plant injury at 15.625 g/ha (corn (Zea mays) [10]): 0%; plant injury at 62.5 g/ha (corn (Zea mays) [10]): 0%; plant injury at 250 g/ha (corn (Zea mays) [10]): 0%; pest or weed control at 15.625 g/ha [11]: 0%; pest or weed control at 62.5 g/ha [11]: 0%; pest or weed control at 250 g/ha [11]: 0%; pest or weed control at 15.625 g/ha [12]: 0%; pest or weed control at 62.5 g/ha [12]: 0%; pest or weed control at 250 g/ha [12]: 0%
